ChEMBL document CHEMBL1201862, “PubChem BioAssay data set” (2004)
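How tested: cells in 96-well plates exposed to compound for 48 hours at five concentrations. Here, GI50 denotes the concentration required for 50% inhibition of growth.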 The source made the active and inactive calls. Rule as the data show it: active = GI50 up to about 1.1 µM and inactive = higher.

Columns and labels:
Assay in all cases: DTP human tumour cell line panel, 48 h
LXFL 529 = test system: LXFL 529
UO-31 = test system: UO-31
NCI-H522 = test system: NCI-H522
HCC 2998 = test system: HCC 2998
U-251 = test system: U-251
SNB-75 = test system: SNB-75
EKVX = test system: EKVX
NCI-H460 = test system: NCI-H460
KM-20L2 = test system: KM-20L2
HT-29 = test system: HT-29
SNB-19 = test system: SNB-19
HCT-116 = test system: HCT-116
RXF 393 = test system: RXF 393
SNB-78 = test system: SNB-78
Malme-3M = test system: Malme-3M
786-0 = test system: 786-0
SK-MEL-2 = test system: SK-MEL-2
DMS-114 = test system: DMS-114
M14 = test system: M14
ACHN = test system: ACHN
RPMI-8226 = test system: RPMI-8226
SK-OV-3 = test system: SK-OV-3
XF498 = test system: XF498
MOLT-4 = test system: MOLT-4
A498 = test system: A498
OVCAR-5 = test system: OVCAR-5
UACC-257 = test system: UACC-257
HOP-92 = test system: HOP-92
DMS-273 = test system: DMS-273
M19-MEL = test system: M19-MEL
OVCAR-8 = test system: OVCAR-8
RXF 631 = test system: RXF 631
DLD-1 = test system: DLD-1
SW-620 = test system: SW-620
OVCAR-3 = test system: OVCAR-3
KM12 = test system: KM12
HL-60 = test system: HL-60
CCRF-CEM = test system: CCRF-CEM
UACC-62 = test system: UACC-62
COLO 205 = test system: COLO 205
SF-539 = test system: SF-539
HOP-62 = test system: HOP-62
K562 = test system: K562
TK-10 = test system: TK-10
LOX IMVI = test system: LOX IMVI
A549 = test system: A549
NCI-H23 = test system: NCI-H23
IGROV-1 = test system: IGROV-1
SK-MEL-28 = test system: SK-MEL-28
SF-295 = test system: SF-295
SN12C = test system: SN12C
SK-MEL-5 = test system: SK-MEL-5
HCT-15 = test system: HCT-15
NCI-H226 = test system: NCI-H226
CAKI-1 = test system: CAKI-1
OVCAR-4 = test system: OVCAR-4
SF-268 = test system: SF-268
SR = test system: SR
HOP-18 = test system: HOP-18

Measured: GI50

NC(=O)NC12CC3CC(CC(F)(C3)C1)C2
inactive: LXFL 529 > 100 µM | UO-31 > 100 µM | NCI-H522 > 100 µM | HCC 2998 > 100 µM | U-251 > 100 µM | SNB-75 87.9 µM | EKVX > 100 µM | NCI-H460 > 100 µM | KM-20L2 > 100 µM | HT-29 > 100 µM | SNB-19 > 100 µM | HCT-116 > 100 µM | RXF 393 > 100 µM | SNB-78 > 100 µM | Malme-3M > 100 µM | 786-0 > 100 µM | SK-MEL-2 > 100 µM | DMS-114 > 100 µM | M14 > 100 µM | ACHN > 100 µM | RPMI-8226 > 100 µM | SK-OV-3 > 100 µM | XF498 > 100 µM | MOLT-4 > 100 µM | A498 > 100 µM | OVCAR-5 > 100 µM | UACC-257 > 100 µM | HOP-92 > 100 µM | DMS-273 > 100 µM | M19-MEL > 100 µM | OVCAR-8 > 100 µM | RXF 631 > 100 µM | DLD-1 > 100 µM | SW-620 > 100 µM | OVCAR-3 > 100 µM | KM12 > 100 µM | HL-60 > 100 µM | CCRF-CEM > 100 µM | UACC-62 > 100 µM | COLO 205 > 100 µM | SF-539 > 100 µM | HOP-62 > 100 µM | K562 > 100 µM | TK-10 > 100 µM | LOX IMVI > 100 µM | A549 > 100 µM | NCI-H23 > 100 µM | IGROV-1 > 100 µM | SK-MEL-28 > 100 µM

O=C(Cc1nc2ccccc2o1)C(=O)Nc1ccccc1C(F)(F)F
> 100 µM: HCT-15
inactive: LXFL 529 > 100 µM | UO-31 > 100 µM | NCI-H522 > 100 µM | HCC 2998 > 100 µM | U-251 > 100 µM | SNB-75 63.1 µM | EKVX > 100 µM | NCI-H460 > 100 µM | KM-20L2 > 100 µM | HT-29 > 100 µM | SNB-19 > 100 µM | HCT-116 > 100 µM | RXF 393 > 100 µM | SNB-78 > 100 µM | Malme-3M > 100 µM | 786-0 > 100 µM | SF-295 > 100 µM | SK-MEL-2 > 100 µM | DMS-114 > 100 µM | M14 > 100 µM | ACHN > 100 µM | SN12C > 100 µM | SK-MEL-5 > 100 µM | RPMI-8226 > 100 µM | SK-OV-3 > 100 µM | XF498 > 100 µM | A498 > 100 µM | OVCAR-5 > 100 µM | UACC-257 > 100 µM | HOP-92 > 100 µM | DMS-273 > 100 µM | M19-MEL > 100 µM | OVCAR-8 > 100 µM | RXF 631 > 100 µM | DLD-1 > 100 µM | NCI-H226 > 100 µM | SW-620 > 100 µM | CAKI-1 > 100 µM | OVCAR-3 > 100 µM | KM12 > 100 µM | HL-60 > 100 µM | CCRF-CEM > 100 µM | UACC-62 > 100 µM | COLO 205 > 100 µM | SF-539 > 100 µM | HOP-62 > 100 µM | K562 > 100 µM | TK-10 > 100 µM | LOX IMVI > 100 µM | A549 > 100 µM | NCI-H23 > 100 µM | OVCAR-4 > 100 µM | SF-268 > 100 µM | IGROV-1 > 100 µM

COc1ccc2c(C(=O)O)cc3cc(OC)c(OC)cc3c2c1
> 100 µM: HCT-15
inactive: LXFL 529 > 100 µM | UO-31 > 100 µM | NCI-H522 > 100 µM | HCC 2998 > 100 µM | U-251 > 100 µM | SNB-75 > 100 µM | EKVX > 100 µM | SR > 100 µM | NCI-H460 > 100 µM | KM-20L2 > 100 µM | HT-29 > 100 µM | SNB-19 > 100 µM | HCT-116 > 100 µM | RXF 393 > 100 µM | SNB-78 > 100 µM | Malme-3M > 100 µM | 786-0 > 100 µM | SF-295 > 100 µM | SK-MEL-2 > 100 µM | M14 > 100 µM | ACHN > 100 µM | SN12C > 100 µM | SK-MEL-5 43.6 µM | RPMI-8226 > 100 µM | SK-OV-3 > 100 µM | XF498 > 100 µM | MOLT-4 > 100 µM | OVCAR-5 > 100 µM | UACC-257 > 100 µM | HOP-92 > 100 µM | DMS-273 > 100 µM | M19-MEL > 100 µM | OVCAR-8 > 100 µM | RXF 631 > 100 µM | DLD-1 > 100 µM | NCI-H226 > 100 µM | SW-620 > 100 µM | OVCAR-3 > 100 µM | KM12 > 100 µM | HL-60 57.4 µM | CCRF-CEM > 100 µM | UACC-62 > 100 µM | HOP-18 > 100 µM | COLO 205 > 100 µM | SF-539 > 100 µM | K562 > 100 µM | TK-10 > 100 µM | LOX IMVI > 100 µM | A549 > 100 µM | NCI-H23 > 100 µM | SF-268 > 100 µM | IGROV-1 > 100 µM | SK-MEL-28 > 100 µM
